Data: patent publication US6790986B1, “Process for the preparation of gabapentin free from inorganic acids anions” (Farchemia S.r.l., priority 2003, dated 2004)
Where two headings read alike, the source gives them in different places.

Columns and labels:
[1] = hydroxybenzoate salts of gabapentin in water; precipitates from aqueous solution
From the text: Numerous processes for reducing the chloride ions content in gabapentin exist. […] The proportion of remaining hydrochloride admixtures should thereby not exceed 20 ppm. The same also applies to other mineral acids.”

[2] = storage stability (increase of lactam content on storage); format: physicochemical; details: gabapentin obtained by the process; after one year at 25° C. and 50% humidity
Method: According to the invention, an aqueous solution containing approx. 10 to approx. 18 kg, preferably 13-15 kg, of gabapentin per 100 liters of water, at a temperature ranging from approx. 25 to approx. 60° C., preferably from 30 to 45° C., is added with the hydroxyacid in amounts of 0.95-1.05 mols per mol of gabapentin, the preferred molar ratio between the compounds being 1:1. The resulting suspension is stirred at the same temperature for 5-10 hours, then cooled to approx. 15-25° C. The resulting gabapentin hydroxybenzoate is dried under vacuum at approx. 50° C. The yield is approx. 90% on theoretical, with a assay higher than 99.5%. The resulting salt is suspended in a lower alcohol, preferably absolute ethanol, in amounts of approx. 3-5 liters per kg of salt, at a temperature of 15-25° C., and the suspension is added with an amount of tertiary amine (preferably tributylamine and most preferably N-ethyl-diisopropylamine (“Hünig base”)) in amounts of 1-1.2 mols per mol of gabapentin hydroxybenzoate. After stirring for some hours at the same temperature, the mixture is cooled to 5-10° C., the precipitated gabapentin is filtered or centrifuged, washed with the same alcohol, then stirred with ethanol containing approx. 10% by volume of water.

[3] = stated as known; cited from earlier work

Structure (SMILES)	water-solubility [1]	increase of content in lactam on storage [2]	water-solubility [3]
NCC1(CC(=O)O)CCCCC1.O=C(O)c1ccc(O)cc1 [gabapentin 4-hydroxybenzoate]	so poor		
NCC1(CC(=O)O)CCCCC1 [gabapentin, 1-(aminomethyl)-cyclohexaneacetic acid]		does not undergo substantial increases	highly water-soluble
NCC1(CC(=O)O)CCCCC1.O=C(O)c1ccccc1O [salicylate, gabapentin salicylate]	so poor		
